System: C. elegans N2 Bristol strain
Experiment: C. elegans fecundity assay
Format: in vivo, Caenorhabditis elegans
Settings: estimated concentration threshold, refined threshold-exposure stage; 6–7 days

Cn1c(C(=O)NCCCc2c[nH]c(N)n2)cc(Br)c1Br [DHS, dihydrosventrin]
ECT (C. elegans): 470 to 490 µM

Reference: article PMC3434693 (Drug and chemical toxicology, 2012)
